Reference: ChEMBL document CHEMBL1201862, “PubChem BioAssay data set” (2004)
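Growth conditions: 96-well plates. Treatment: test compound, 48 hours, 5 concentrations. Analysis: linear interpolation between bracketing concentrations; unreached endpoints set to highest concentration. GI50: concentration for 50% inhibition of growth.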 Activity calls are given as the source filed them. No stated cut-off is given here; in the data, active = GI50 up to about 1.1 µM and inactive = higher.

How the values were obtained:
Assay in all cases: inhibition of tumour cell growth, NCI panel, 48 h
[1] = tested on: SF-268
[2] = tested on: ACHN
[3] = tested on: SF-539
[4] = tested on: DU-145
[5] = tested on: A498
[6] = tested on: EKVX
[7] = tested on: MDA-MB-435
[8] = tested on: HCT-15
[9] = tested on: PC-3
[10] = tested on: UACC-62
[11] = tested on: SK-OV-3
[12] = tested on: NCI-H522
[13] = tested on: Malme-3M
[14] = tested on: MDA-MB-231
[15] = tested on: MDA-N
[16] = tested on: MOLT-4
[17] = tested on: SF-295
[18] = tested on: UACC-257
[19] = tested on: SK-MEL-28
[20] = tested on: SR

Structure (SMILES) | GI50 [1] | GI50 [2] | GI50 [3] | GI50 [4] | GI50 [5] | GI50 [6] | GI50 [7] | GI50 [8] [µM] | GI50 [9] | GI50 [10] | GI50 [11] | GI50 [12] | GI50 [13] | GI50 [14] | GI50 [15] | GI50 [16] | GI50 [17] | GI50 [18] | GI50 [19] | GI50 [20]
O=C(O)C1C(C(=O)O)C2C(=O)C=CC1N2Cc1ccccc1 (stereo unspecified) | 3.24 µM (inactive) | 4.18 µM (inactive) | 2.8 µM (inactive) | 1.99 µM (inactive) | 20.3 µM (inactive) | 3.06 µM (inactive) | 3.66 µM (inactive) | 2.46 | 5.58 µM (inactive) | 7.96 µM (inactive) | 5.35 µM (inactive) | 1.87 µM (inactive) | 3.68 µM (inactive) | 3.16 µM (inactive) | 2.56 µM (inactive) | 3.54 µM (inactive) | 11.3 µM (inactive) | 2.62 µM (inactive) | 4.29 µM (inactive) | –
Cc1ccc(S(=O)(=O)NCCCCC(N)C(=O)O)cc1 (stereo unspecified) | > 100 µM (inactive) | > 100 µM (inactive) | > 100 µM (inactive) | > 100 µM (inactive) | > 100 µM (inactive) | > 100 µM (inactive) | > 100 µM (inactive) | > 100 | > 100 µM (inactive) | > 100 µM (inactive) | > 100 µM (inactive) | > 100 µM (inactive) | > 100 µM (inactive) | > 100 µM (inactive) | > 100 µM (inactive) | > 100 µM (inactive) | > 100 µM (inactive) | > 100 µM (inactive) | > 100 µM (inactive) | –
COc1ccc([C@H]2[C@H]3COC(=O)[C@H]3C(C#N)=C3Sc4ccccc4N32)cc1 | 71.6 µM (inactive) | 37.6 µM (inactive) | 22.3 µM (inactive) | 19.2 µM (inactive) | 43.7 µM (inactive) | 37.4 µM (inactive) | 44.2 µM (inactive) | 25.8 | 17.3 µM (inactive) | 28.8 µM (inactive) | 39.9 µM (inactive) | 18.1 µM (inactive) | 43 µM (inactive) | 28.3 µM (inactive) | 28.8 µM (inactive) | 13.4 µM (inactive) | 16.3 µM (inactive) | 40.6 µM (inactive) | 53.5 µM (inactive) | –
CCNC(=S)NNC(=O)C12CC3CC(CC(C3)C1)C2 | > 100 µM (inactive) | > 100 µM (inactive) | > 100 µM (inactive) | > 100 µM (inactive) | > 100 µM (inactive) | – | > 100 µM (inactive) | > 100 | > 100 µM (inactive) | > 100 µM (inactive) | > 100 µM (inactive) | > 100 µM (inactive) | > 100 µM (inactive) | > 100 µM (inactive) | > 100 µM (inactive) | > 100 µM (inactive) | > 100 µM (inactive) | > 100 µM (inactive) | > 100 µM (inactive) | –
N#CC(c1cc2c(cc1Br)OCO2)N1CCOCC1 (stereo unspecified) | 73.8 µM (inactive) | 62.8 µM (inactive) | 29.7 µM (inactive) | 48.5 µM (inactive) | – | 44.3 µM (inactive) | 4.05 µM (inactive) | – | 15.3 µM (inactive) | 21.1 µM (inactive) | 73.3 µM (inactive) | > 100 µM (inactive) | 78.9 µM (inactive) | 43.7 µM (inactive) | 18.2 µM (inactive) | 27.7 µM (inactive) | 53 µM (inactive) | > 100 µM (inactive) | > 100 µM (inactive) | 4.82 µM (inactive)
O=C(O)CCSCc1ccccc1 | > 100 µM (inactive) | > 100 µM (inactive) | > 100 µM (inactive) | > 100 µM (inactive) | > 100 µM (inactive) | > 100 µM (inactive) | > 100 µM (inactive) | > 100 | > 100 µM (inactive) | > 100 µM (inactive) | > 100 µM (inactive) | > 100 µM (inactive) | > 100 µM (inactive) | > 100 µM (inactive) | > 100 µM (inactive) | > 100 µM (inactive) | > 100 µM (inactive) | > 100 µM (inactive) | > 100 µM (inactive) | –
CC(=O)Oc1ccc2c(c1)O/C(=C\c1ccc(O)cc1)C2=O | > 100 µM (inactive) | > 100 µM (inactive) | > 100 µM (inactive) | > 100 µM (inactive) | – | > 100 µM (inactive) | > 100 µM (inactive) | > 100 | > 100 µM (inactive) | > 100 µM (inactive) | > 100 µM (inactive) | 28.4 µM (inactive) | – | > 100 µM (inactive) | > 100 µM (inactive) | > 100 µM (inactive) | > 100 µM (inactive) | > 100 µM (inactive) | > 100 µM (inactive) | > 100 µM (inactive)
CCOC(=O)Cn1nnc2ccc(Nc3nc4ccccc4nc3C(=O)OCC)cc21 | 27.2 µM (inactive) | > 100 µM (inactive) | 31.3 µM (inactive) | 74.1 µM (inactive) | > 100 µM (inactive) | > 100 µM (inactive) | > 100 µM (inactive) | > 100 | > 100 µM (inactive) | 65.3 µM (inactive) | 59 µM (inactive) | 39.7 µM (inactive) | > 100 µM (inactive) | – | > 100 µM (inactive) | > 100 µM (inactive) | 34.7 µM (inactive) | > 100 µM (inactive) | > 100 µM (inactive) | > 100 µM (inactive)
O=C(O)c1ccccc1/C=C1\Cc2cc3c(cc2C1=O)CCC3 | 35.3 µM (inactive) | 34.4 µM (inactive) | 29.1 µM (inactive) | 25.3 µM (inactive) | 30.8 µM (inactive) | 32.1 µM (inactive) | 12.7 µM (inactive) | 16.3 | – | 16.9 µM (inactive) | 36.2 µM (inactive) | 18.9 µM (inactive) | 26.9 µM (inactive) | 20.3 µM (inactive) | 11.9 µM (inactive) | 17.4 µM (inactive) | 24 µM (inactive) | 26.5 µM (inactive) | 50.5 µM (inactive) | 4.72 µM (inactive)
CC(=O)O[C@H]1C(=O)[C@@]2(C)[C@H]([C@H](OC(=O)c3ccccc3)[C@]3(O)C[C@H](OC(=O)[C@H](O)[C@@H](NC(=O)c4ccccc4)C4CCCCC4)C(C)=C1C3(C)C)[C@]1(OC(C)=O)CO[C@@H]1C[C@@H]2O | < 0.01 µM (active) | 0.288 µM (active) | < 0.01 µM (active) | – | – | 3 µM (inactive) | < 0.01 µM (active) | 0.12 | 0.0468 µM (active) | < 0.01 µM (active) | < 0.01 µM (active) | < 0.01 µM (active) | 23.6 µM (inactive) | < 0.01 µM (active) | < 0.01 µM (active) | < 0.01 µM (active) | < 0.01 µM (active) | – | 34.1 µM (inactive) | < 0.01 µM (active)
Cc1cc(-c2ccc[nH]2)on1 | > 100 µM (inactive) | > 100 µM (inactive) | – | > 100 µM (inactive) | > 100 µM (inactive) | > 100 µM (inactive) | > 100 µM (inactive) | > 100 | > 100 µM (inactive) | > 100 µM (inactive) | > 100 µM (inactive) | > 100 µM (inactive) | > 100 µM (inactive) | > 100 µM (inactive) | > 100 µM (inactive) | > 100 µM (inactive) | > 100 µM (inactive) | > 100 µM (inactive) | > 100 µM (inactive) | –
COC(=O)C1(C)C=CC(=O)C2(C)C1C(O)C1OC3CC(c4ccoc4)C(C)=C3C1(C)C2CC(=O)O (stereo unspecified) | > 100 µM (inactive) | > 100 µM (inactive) | > 100 µM (inactive) | > 100 µM (inactive) | > 100 µM (inactive) | > 100 µM (inactive) | > 100 µM (inactive) | > 100 | > 100 µM (inactive) | > 100 µM (inactive) | > 100 µM (inactive) | > 100 µM (inactive) | > 100 µM (inactive) | > 100 µM (inactive) | > 100 µM (inactive) | > 100 µM (inactive) | > 100 µM (inactive) | > 100 µM (inactive) | > 100 µM (inactive) | –
CC(C)(C)CN1[C@@H]2CCCC[C@H]2N(CC(C)(C)C)P1(=O)Cc1ccccc1 | 15 µM (inactive) | 15.2 µM (inactive) | 17.3 µM (inactive) | 15.6 µM (inactive) | – | 14.3 µM (inactive) | 16.2 µM (inactive) | 12 | 6.5 µM (inactive) | 10.7 µM (inactive) | 15.1 µM (inactive) | 7.48 µM (inactive) | 13.5 µM (inactive) | 12.2 µM (inactive) | 14.9 µM (inactive) | 11.5 µM (inactive) | 10.4 µM (inactive) | 12.8 µM (inactive) | 16.9 µM (inactive) | 11.8 µM (inactive)
COC(=O)C1CC2(CCC1=O)Cc1ccccc1C2=O (stereo unspecified) | > 100 µM (inactive) | > 100 µM (inactive) | > 100 µM (inactive) | > 100 µM (inactive) | – | 89.5 µM (inactive) | – | > 100 | > 100 µM (inactive) | > 100 µM (inactive) | > 100 µM (inactive) | 67.8 µM (inactive) | > 100 µM (inactive) | > 100 µM (inactive) | > 100 µM (inactive) | 48.5 µM (inactive) | 82.2 µM (inactive) | > 100 µM (inactive) | > 100 µM (inactive) | 37.8 µM (inactive)
CN(Cc1cc(Cl)c(Cl)cc1NC(=O)CN)[C@H]1CCCC[C@@H]1N1CCCC1 | 68.2 µM (inactive) | > 100 µM (inactive) | – | – | 18.4 µM (inactive) | 34.9 µM (inactive) | 15.6 µM (inactive) | – | 50.7 µM (inactive) | 17.1 µM (inactive) | > 100 µM (inactive) | 18.4 µM (inactive) | 18.3 µM (inactive) | 38.5 µM (inactive) | 17 µM (inactive) | 28.8 µM (inactive) | 18.6 µM (inactive) | 16.9 µM (inactive) | 19.8 µM (inactive) | 21.5 µM (inactive)
